Reference: ChEMBL document CHEMBL2311504, “Inhibition of the human deacylase Sirtuin 5 by the indole GW5074” (Bioorg Med Chem Lett, 2013)
Activity calls are given as the source filed them. No cut-off for these calls is given here.

Tests used:
[1] = target: T1, NAD-dependent protein deacylase sirtuin-5, mitochondrial (Homo sapiens, UniProt Q9NXA8); test: Inhibition of human Sirt5 desuccinylation activity using SKEYFS-succinylLys-QK as substrate at 100 uM after 60 mins by glutamate dehydrpgenase-coupled assay
Target sequence in this assay (Q9NXA8 37-310 limits assumed): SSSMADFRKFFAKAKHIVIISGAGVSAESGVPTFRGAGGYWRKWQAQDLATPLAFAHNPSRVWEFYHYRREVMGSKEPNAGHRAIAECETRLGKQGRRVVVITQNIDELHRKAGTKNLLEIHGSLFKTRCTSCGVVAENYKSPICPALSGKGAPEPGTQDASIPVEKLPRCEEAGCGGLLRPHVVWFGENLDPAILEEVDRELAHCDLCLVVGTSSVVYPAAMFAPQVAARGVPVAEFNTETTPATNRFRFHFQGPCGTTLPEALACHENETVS

[2] = target: T1, NAD-dependent protein deacylase sirtuin-5, mitochondrial; test: Inhibition of human Sirt5 deacetylation activity using FKRGVL-acetylLys-EYGVKV as substrate at 100 uM after 60 mins by glutamate dehydrogenase-coupled assay
Target sequence in this assay (Q9NXA8 37-310 limits assumed): as above

[3] = target: T1, NAD-dependent protein deacylase sirtuin-5, mitochondrial; test: Inhibition of human Sirt5 desuccinylation activity using SKEYFS-succinylLys-QK as substrate assessed as activity remaining at 100 µM measured for 20 mins by MS analysis
Target sequence in this assay (Q9NXA8 37-310 limits assumed): as above

[4] = target: T1, NAD-dependent protein deacylase sirtuin-5, mitochondrial; test: Inhibition of human Sirt5 deacetylation activity using FKRGVL-acetylLys-EYGVKV as substrate assessed as activity remaining at 100 µM measured for 20 mins by MS analysis
Target sequence in this assay (Q9NXA8 37-310 limits assumed): as above

[5] = target: T1, NAD-dependent protein deacylase sirtuin-5, mitochondrial; test: Inhibition of human Sirt5 deacetylation activity using FKRGVL-acetylLys-EYGVKV as substrate measured for 15 mins by MS analysis
Target sequence in this assay (Q9NXA8 whole entry): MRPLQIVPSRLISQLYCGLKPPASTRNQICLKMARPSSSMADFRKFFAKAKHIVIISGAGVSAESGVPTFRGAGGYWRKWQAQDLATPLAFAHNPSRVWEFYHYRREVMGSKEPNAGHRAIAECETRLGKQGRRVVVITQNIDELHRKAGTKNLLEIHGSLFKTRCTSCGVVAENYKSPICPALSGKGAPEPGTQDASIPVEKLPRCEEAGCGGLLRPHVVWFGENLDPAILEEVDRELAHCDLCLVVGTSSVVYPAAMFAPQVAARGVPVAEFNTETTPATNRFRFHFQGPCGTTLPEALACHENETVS

[6] = target: T1, NAD-dependent protein deacylase sirtuin-5, mitochondrial; test: Selectivity ratio of IC50 for human Sirt5 deacetylation activity to IC50 for human Sirt5 desuccinylation activity
Target sequence in this assay (Q9NXA8 37-310 limits assumed): as the sequence (Q9NXA8 37-310 limits assumed) above

[7] = target: T1, NAD-dependent protein deacylase sirtuin-5, mitochondrial; test: Inhibition of human Sirt5 deacetylation activity using SKEYFS-acetylLys-QK as substrate measured for 15 mins by MS analysis
Target sequence in this assay (Q9NXA8 whole entry): as the sequence (Q9NXA8 whole entry) above

[8] = target: T1, NAD-dependent protein deacylase sirtuin-5, mitochondrial; test: Inhibition of human Sirt5 desuccinylation activity using SKEYFS-succinylLys-QK as substrate measured for 15 mins by MS analysis
Target sequence in this assay (Q9NXA8 whole entry): as above

Compound | inhibition [1] | inhibition [2] | other results
O=C1Oc2ccc3cc(Br)ccc3c2CC1c1ccccc1 (stereo not given) | inactive | inactive | 
O=C(Nc1ccccc1-c1cn2c(CN3CCNCC3)csc2n1)c1cnc2ccccc2n1 | inactive | inactive | 
O=C1Nc2ccc(I)cc2C1=Cc1cc(Br)c(O)c(Br)c1 [GW305074X] |  |  | Activity [3]: 15%; Activity [4]: 30%; IC50 [5]: 97.8 µM; Ratio IC50 [6]: 4; IC50 [7]: 200 µM; IC50 [8]: 19.5 µM
Cc1ccc(C(=O)Nc2ccc(S(=O)(=O)O)c3cc(S(=O)(=O)O)cc(S(=O)(=O)O)c23)cc1NC(=O)c1cccc(NC(=O)Nc2cccc(C(=O)Nc3cc(C(=O)Nc4ccc(S(=O)(=O)O)c5cc(S(=O)(=O)O)cc(S(=O)(=O)O)c45)ccc3C)c2)c1 | 20% | Active | 
NC(=O)C1CCCc2c1[nH]c1ccc(Cl)cc21 (stereo not given) | inactive | inactive | 

The next lines start with results.

inhibition [1] | inhibition [2] | Compound | other results
inactive | inactive | CC(NC(=O)c1ccccc1/N=C/c1c(O)ccc2ccccc12)c1ccccc1 (stereo not given) | 
inactive | inactive | N#C/C(=C\c1ccc(-c2cc(Cl)ccc2Cl)o1)C(=O)Nc1cccc2ncccc12 | 
20% | inactive | CC(C(=O)Nc1cccc(/N=C/c2c(O)ccc3ccccc23)c1)c1ccccc1 (stereo not given) | 
